Source: patent US12077503B2, “Substituted cyclic amides and their use as herbicides” (FMC CORPORATION, priority 2015, dated 2024)

Legend:
Format in all cases: in vivo
[1] = test system: pigweed (Amaranthus retroflexus); experiment: Test A preemergence; conditions: Amaranthus retroflexus, pre-emergence, 240 h; for pest or weed control at 125 g/ha: 125 g ai/ha, preemergence, 0 to 100 scale where 0 is no effect and 100 is complete control, read-out: Pigweed plant response rating; for pest or weed control at 500 g/ha: 500 g ai/ha, Preemergence, visual injury vs untreated controls after approximately 10 d, read-out: Pigweed plant response rating (0 to 100 scale where 0 is no effect and 100 is complete control)
[2] = test system: ragweed (common ragweed, Ambrosia elatior); experiment: Test A preemergence; conditions: Ambrosia artemisiifolia, pre-emergence, 240 h; for pest or weed control at 125 g/ha: 125 g ai/ha, preemergence, 0 to 100 scale where 0 is no effect and 100 is complete control, read-out: Ragweed plant response rating; for pest or weed control at 500 g/ha: 500 g ai/ha, Preemergence, visual injury vs untreated controls after approximately 10 d, read-out: Ragweed plant response rating (0 to 100 scale where 0 is no effect and 100 is complete control)
In short: (§1)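 Preemergence soil spray on seeded pots or post-emergence spray on 1–2 leaf plants, in loam–sand blend. Greenhouse ~10 d. Visual rating 0–100 against untreated plants.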

[3] = test system: Kochia (Kochia scoparia); experiment: Test A preemergence; conditions: Bassia scoparia, pre-emergence, 240 h; for pest or weed control at 125 g/ha: 125 g ai/ha, preemergence, 0 to 100 scale where 0 is no effect and 100 is complete control, read-out: Kochia plant response rating; for pest or weed control at 500 g/ha: 500 g ai/ha, Preemergence, visual injury vs untreated controls after approximately 10 d, read-out: Kochia plant response rating (0 to 100 scale where 0 is no effect and 100 is complete control)
In short: as §1

[4] = test system: barnyardgrass (Echinochloa crus-galli); experiment: Test A preemergence; conditions: Echinochloa crus-galli, pre-emergence, 240 h; for pest or weed control at 125 g/ha: 125 g ai/ha, preemergence, 0 to 100 scale where 0 is no effect and 100 is complete control, read-out: Barnyardgrass plant response rating; for pest or weed control at 500 g/ha: 500 g ai/ha, Preemergence, visual injury vs untreated controls after approximately 10 d, read-out: Barnyardgrass plant response rating (0 to 100 scale where 0 is no effect and 100 is complete control)
In short: as §1

[5] = test system: giant foxtail (Setaria faberii); experiment: Test A preemergence; conditions: Setaria faberi, pre-emergence, 240 h; for pest or weed control at 125 g/ha: 125 g ai/ha, preemergence, 0 to 100 scale where 0 is no effect and 100 is complete control, read-out: Foxtail, Giant plant response rating; for pest or weed control at 500 g/ha: 500 g ai/ha, Preemergence, visual injury vs untreated controls after approximately 10 d, read-out: Foxtail, Giant plant response rating (0 to 100 scale where 0 is no effect and 100 is complete control)
In short: as §1

[6] = test system: ryegrass, Italian (Italian ryegrass, Lolium multiflorum); experiment: Test A preemergence; conditions: Lolium multiflorum, pre-emergence, 240 h; for pest or weed control at 125 g/ha: 125 g ai/ha, preemergence, 0 to 100 scale where 0 is no effect and 100 is complete control, read-out: Ryegrass, Italian plant response rating; for pest or weed control at 500 g/ha: 500 g ai/ha, Preemergence, visual injury vs untreated controls after approximately 10 d, read-out: Ryegrass, Italian plant response rating (0 to 100 scale where 0 is no effect and 100 is complete control)
In short: as §1

[7] = test system: barnyardgrass (Echinochloa crus-galli); experiment: Test B flooded paddy test; conditions: Echinochloa crus-galli, Flood, 250 g ai/ha; scale of 0 to 100 where 0 is no effect and 100 is complete control; read-out: Barnyardgrass plant response rating
In short: (§2)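 Rating scale 0–100 (visual, vs untreated controls) after a 13–15 d greenhouse period; application to the flood layer, 3 cm above soil and maintained; plants at 2-leaf stage when treated.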

[8] = test system: rice (Oryra sativa); experiment: Test B flooded paddy test; conditions: Oryza sativa, Flood, 250 g ai/ha; scale of 0 to 100 where 0 is no effect and 100 is complete control; read-out: Rice plant response rating
In short: as §2

[9] = test system: ducksalad (Heteranthera limosa); experiment: Test B flooded paddy test; conditions: Heteranthera limosa, Flood, 250 g ai/ha; scale of 0 to 100 where 0 is no effect and 100 is complete control; read-out: Ducksalad plant response rating
In short: as §2

[10] = test system: sedge, umbrella (small-flower umbrella sedge, Cyperus difformis); experiment: Test B flooded paddy test; conditions: Cyperus difformis, Flood, 250 g ai/ha; scale of 0 to 100 where 0 is no effect and 100 is complete control; read-out: Sedge, Umbrella plant response rating
In short: as §2

[11] = test system: blackgrass (Alopecurus myosuroides); experiment: Test A postemergence; conditions: Alopecurus myosuroides, post-emergence, 240 h, 125 g ai/ha, postemergence, visual injury rating after approximately 10 d; read-out: Blackgrass plant response rating (0 to 100 scale, 0 no effect, 100 complete control)
In short: as §1

[12] = test system: pigweed (Amaranthus retroflexus); experiment: Test A postemergence; conditions: Amaranthus retroflexus, post-emergence, 240 h, 125 g ai/ha, postemergence, visual injury rating after approximately 10 d; read-out: Pigweed plant response rating (0 to 100 scale, 0 no effect, 100 complete control)
In short: as §1

[13] = test system: Kochia (Kochia scoparia); experiment: Test A postemergence; conditions: Bassia scoparia, post-emergence, 240 h, 125 g ai/ha, postemergence, visual injury rating after approximately 10 d; read-out: Kochia plant response rating (0 to 100 scale, 0 no effect, 100 complete control)
In short: as §1

[14] = test system: barnyardgrass (Echinochloa crus-galli); experiment: Test A postemergence; conditions: Echinochloa crus-galli, post-emergence, 240 h, 125 g ai/ha, postemergence, visual injury rating after approximately 10 d; read-out: Barnyardgrass plant response rating (0 to 100 scale, 0 no effect, 100 complete control)
In short: as §1

| SMILES | pest or weed control at 125 g/ha [1] [%] | pest or weed control at 500 g/ha [1] [%] | pest or weed control at 125 g/ha [2] [%] | pest or weed control at 500 g/ha [2] [%] | pest or weed control at 125 g/ha [3] [%] | pest or weed control at 500 g/ha [3] [%] | pest or weed control at 125 g/ha [4] [%] | pest or weed control at 500 g/ha [4] [%] | pest or weed control at 125 g/ha [5] [%] | pest or weed control at 500 g/ha [5] [%] | pest or weed control at 125 g/ha [6] [%] | pest or weed control at 500 g/ha [6] [%] | pest or weed control at 250 g/ha [7] [%] | pest or weed control at 250 g/ha [8] [%] | pest or weed control at 250 g/ha [9] [%] | pest or weed control at 250 g/ha [10] [%] | pest or weed control at 125 g/ha [11] [%] | pest or weed control at 125 g/ha [12] [%] | pest or weed control at 125 g/ha [13] [%] | pest or weed control at 125 g/ha [14] [%] |
| --- | --- | --- | --- | --- | --- | --- | --- | --- | --- | --- | --- | --- | --- | --- | --- | --- | --- | --- | --- | --- |
| COc1cc(C(F)(F)F)ccc1[C@H]1CN(C)C(=O)[C@@H]1C(=O)Nc1cccc(F)c1F [Compound 859] | 60 | 80 | 0 | 50 | 50 | 60 | 90 | 90 | 90 | 90 | 20 | 80 | 65 | 0 | 100 | 0 | 30 | 20 | 20 | 80 |
| COc1cc(C(F)(F)F)ccc1[C@H]1CN(C)C(=O)[C@@H]1C(=O)Nc1ccccc1SC [Compound 860] | 60 | 90 | 0 | 50 | 0 | 60 | 90 | 90 | 90 | 90 | 20 | 40 | 0 | 0 | 90 | 0 | 0 | 0 | 0 | 30 |
| CSc1ccccc1NC(=O)[C@H]1C(=O)NC[C@@H]1c1cccc2c1OC(F)(F)O2 [Compound 865] | 0 | 0 | 0 | 0 | 0 | – | 0 | 70 | 0 | 80 | 0 | 0 | 0 | 30 | 60 | 30 | 0 | 0 | 0 | 0 |
| CSc1ccccc1NC(=O)[C@H]1C(=O)N(C)C[C@@H]1c1cc(F)c(F)c(F)c1 [Compound 866] | 0 | 50 | 0 | 30 | 20 | 80 | 30 | 90 | 90 | 90 | 50 | 70 | 35 | 35 | 90 | 35 | 0 | 0 | 20 | 60 |
| CN1C[C@H](c2cc(F)cc(F)c2)[C@@H](C(=O)Nc2ccccc2[S@+](C)[O-])C1=O [Compound 871] | 0 | 30 | 0 | 20 | 80 | 80 | 20 | 90 | 80 | 80 | 0 | 30 | 0 | 0 | 0 | 0 | 0 | 0 | 0 | 50 |
| Cc1c(F)cccc1NC(=O)[C@H]1C(=O)N(C)C[C@@H]1c1cccc(COC(F)F)c1 [Compound 874] | 20 | 30 | 20 | 60 | 60 | 90 | 90 | 100 | 90 | 100 | 40 | 50 | 65 | 0 | 100 | 0 | 60 | 0 | 20 | 90 |
| CN1C[C@H](c2cccc(COC(F)F)c2)[C@@H](C(=O)Nc2ccccc2F)C1=O [Compound 875] | 0 | 0 | 0 | 50 | 50 | 80 | 90 | 90 | 90 | 90 | 0 | 30 | 70 | 0 | 100 | 0 | 20 | 0 | 40 | 90 |
